In ChEMBL document CHEMBL2331136, “Apoptosis-inducing activity of the actin-depolymerizing agent aplyronine A and its side-chain derivatives” (Bioorg Med Chem Lett, 2013):
Blank lines part the entries; values can stand above or below the molecule they belong to. The source made the active and inactive calls. The rule behind the calls is not given here.

Columns and labels:
[1] = tested on: HL-60; assay: Induction of apoptosis in human HL60 cells assessed as disruption and aggregation of actin filaments at 1 nM after 12 hrs using rhodamine-phalloidin staining by fluorescence microscopy; assay type: functional, cell-based
[2] = tested on: HeLa S3; assay: Induction of apoptosis in human HeLaS3 cells assessed as DNA fragmentation after 24 hrs by agarose gel electrophoresis; assay type: functional, cell-based
[3] = tested on: HL-60; assay: Induction of apoptosis in human HL60 cells assessed as disruption and aggregation of actin filaments at 0.1 nM after 12 hrs using rhodamine-phalloidin staining by fluorescence microscopy; assay type: functional, cell-based
[4] = tested on: HL-60; assay: Induction of apoptosis in human HL60 cells assessed as nuclear shrinkage and fragmentation at 1 nM after 12 hrs using rhodamine-phalloidin staining by fluorescence microscopy in presence of Z-VAD-FMK; assay type: functional, cell-based
[5] = tested on: HL-60; assay: Induction of apoptosis in human HL60 cells assessed as DNA fragmentation after 24 hrs by agarose gel electrophoresis; assay type: functional, cell-based
[6] = tested on: HL-60; assay: Induction of apoptosis in human HL60 cells assessed as activation of caspase-3 at 0.1 to 1 nM after 18 hrs by spectrophotometric analysis; assay type: functional, cell-based
[7] = tested on: HeLa S3; assay: Cytotoxicity against human HeLaS3 cells after 48 hrs by trypan blue dye exclusion assay in presence of Z-VAD-FMK; assay type: functional, cell-based
[8] = tested on: HeLa S3; assay: Cytotoxicity against human HeLaS3 cells after 48 hrs by trypan blue dye exclusion assay; assay type: functional, cell-based
[9] = Induction of F-actin (unknown origin) polymerization after 1 hr by spectrofluorometric analysis; set-up: species or system Homo sapiens
[10] = Cytotoxicity against human HeLaS3 cells after 72 hrs by MTT assay; assay type: functional, cell-based; settings: HeLa S3, 72 h
[11] = tested on: HL-60; assay: Cytotoxicity against human HL60 cells after 24 hrs by trypan blue dye exclusion assay; assay type: functional, cell-based
[12] = tested on: HL-60; assay: Induction of apoptosis in human HL60 cells assessed as nuclear shrinkage and fragmentation at 1 nM after 12 hrs using rhodamine-phalloidin staining by fluorescence microscopy; assay type: functional, cell-based
[13] = tested on: HL-60; assay: Cytotoxicity against human HL60 cells after 24 hrs by trypan blue dye exclusion assay in presence of Z-VAD-FMK; assay type: functional, cell-based
[14] = tested on: HL-60; assay: Cytotoxicity against human HL60 cells after 72 hrs by MTT assay; assay type: functional, cell-based; settings: HL-60, 72 h
[15] = tested on: HL-60; assay: Induction of apoptosis in human HL60 cells assessed as activation of caspase-3 at 10 to 30 uM after 18 hrs by spectrophotometric analysis; assay type: functional, cell-based
[16] = tested on: HL-60; assay: Induction of apoptosis in human HL60 cells assessed as nuclear shrinkage and fragmentation at 30 uM after 12 hrs using rhodamine-phalloidin staining by fluorescence microscopy; assay type: functional, cell-based
[17] = tested on: HL-60; assay: Induction of apoptosis in human HL60 cells assessed as disruption and aggregation of actin filaments at 30 uM after 12 hrs using rhodamine-phalloidin staining by fluorescence microscopy; assay type: functional, cell-based
[18] = tested on: HL-60; assay: Induction of apoptosis in human HL60 cells assessed as nuclear shrinkage and fragmentation at 30 uM after 12 hrs using rhodamine-phalloidin staining by fluorescence microscopy in presence of Z-VAD-FMK; assay type: functional, cell-based

SMILES: COCC(C(=O)O[C@@H]1C/C=C/C=C/C(=O)O[C@H]([C@@H](C)[C@@H](O)[C@@H](C)CC[C@@H](OC(=O)C(C)N(C)C)[C@H](C)[C@H](OC(C)=O)[C@H](C)/C=C/N(C)C=O)C/C=C/[C@H](OC)C[C@H](C)C/C=C(\C)[C@@H](OC)CC[C@@H](C)[C@@H](O)[C@@H]1C)N(C)C (some centres not stated) [APLYRONINE A]
Activity [1]: Active
Activity [2]: Active
Activity [3]: Active
Activity [4]: inactive
Activity [5]: Active
Activity [6]: Active
Activity [7]: inactive
Activity [8]: Dose-dependent effect
IC50 [9]: 1.6 µM
IC50 [10]: 0.00029 µM
Activity [11]: Dose-dependent effect
Activity [12]: Active
Activity [13]: inactive

IC50 [9]: 210 µM
SMILES: C/C=C/[C@@H](OC(=O)[C@H](C)N(C)C)[C@H](C)[C@H](OC(C)=O)[C@H](C)/C=C/N(C)C=O
IC50 [14]: 240 µM

SMILES: COC[C@@H](OC)C(=O)O[C@H](CC[C@H](C)[C@@H](C[C@@H]1OC(=O)C[C@@H](O)C/C=C/C(=O)[C@H](C)[C@H](OC)c2coc(n2)-c2coc(n2)-c2coc(n2)/C=C/C[C@H](OC)[C@H]1C)OC)[C@H](C)[C@H](OC(C)=O)[C@H](C)/C=C/N(C)C=O [MYCALOLIDE B]
Activity [2]: Active
Activity [5]: Active
Activity [7]: inactive
Activity [8]: Dose-dependent effect
IC50 [9]: 1.7 µM
IC50 [10]: 0.052 µM
Activity [11]: Dose-dependent effect
IC50 [14]: 0.0047 µM
Activity [13]: inactive

IC50 [9]: 47 µM
SMILES: CC(=O)O[C@@H]([C@@H](C)[C@@H](/C=C/c1ccccc1)OC(=O)[C@H](C)N(C)C)[C@H](C)/C=C/N(C)C=O
IC50 [14]: 27.5 µM

IC50 [9]: 85 µM
SMILES: CC(=O)O[C@@H]([C@@H](C)[C@@H](/C=C/CCc1ccccc1)OC(=O)[C@H](C)N(C)C)[C@H](C)/C=C/N(C)C=O
IC50 [14]: 53 µM

IC50 [9]: 21 µM
SMILES: CC(=O)O[C@@H]([C@@H](C)[C@@H](/C=C/CCCCc1ccccc1)OC(=O)[C@H](C)N(C)C)[C@H](C)/C=C/N(C)C=O
Activity [5]: Active
Activity [15]: Active
Activity [11]: Active
Activity [16]: Active
Activity [17]: Active
IC50 [14]: 12.7 µM
Activity [13]: inactive
Activity [18]: inactive
